# Experiment: Solubility tests of copper(I) complexes in organic solvents
# Type: physicochemical
# Details: for Löslichkeit (qualitative): effect of the unsymmetrical ligand m-Tolylphosphin s
# Procedure: Bei Koordination an ein Kupferatom könnten die m-Tolyl-Gruppen jeweils auf zwei verschiedene Weisen gedreht vorliegen (Figur 5). Vermutlich wird auf dieses Weise die Packung im Festkörper gestört, wodurch eine höhere Löslichkeit erzielt wird. In der Wärme (60 °C) wurde beispielsweise für Komplex 1-I-s eine Löslichkeit von rund 40 mg mL^-1 erreicht; weitere Löslichkeitsdaten sind in Tabelle 1 aufgeführt.
# Komplex 1-I-s zeigt neben einer guten Löslichkeit auch eine besonders hohe Quanteneffizienz, sowohl in Pulver (93%) als auch im Dünnfilm (90%). Interessanterweise kommt es bei der Filmpräparation dieser Verbindung zu nahezu keiner Verschiebung der Emissionswellenlänge (Film: 550 nm, Pulver: 547 nm). Offenbar liegt bereits im Festkörper eine Verzerrung ähnlich der Situation im Film vor. Die Struktur wird, wie oben erläutert wurde, durch die als sterisch anspruchsvolle Gruppen wirkenden Tolylreste stabilisiert. Tabelle 1: Löslichkeitstests für Komplex 1-I-s.
substance,measurement,setting,value
(PyrPHOS)(tris-m-tolyl-phosphin)2Cu2I2 [Komplex 11-I-s],Löslichkeit (qualitative),,erhöhte Löslichkeit
(Tris-(3-methyl-phenyl)phosphin)(4-tBu-pyridin)Cu2I2 [E-I-s],Löslichkeit (qualitative),,erhöhte Löslichkeit
(Tris-(3-methyl-phenyl)phosphin)(4-tBu-pyridin)Cu2Br2 [E-Br-s],Löslichkeit (qualitative),,erhöhte Löslichkeit
(MePyrPHOS)(Tris-m-tolyl-phosphin)2Cu2I2 [Komplex 1-I-s],Löslichkeit,"1-Heptanol, Konzentration: 5 mg/mL",Ja (Wärme)
same,Löslichkeit,"1-Heptanol, Konzentration: 10 mg/mL",Ja (Wärme)
same,Löslichkeit,"1-Heptanol, Konzentration: 2,5 mg/mL",Ja
same,Löslichkeit,"1-Hexanol, Konzentration: 5 mg/mL",Ja (Wärme)
same,Löslichkeit,"1-Hexanol, Konzentration: 10 mg/mL",Ja (Wärme)
same,Löslichkeit,"1-Hexanol, Konzentration: 2,5 mg/mL",Ja
same,Löslichkeit,"Aceton, Konzentration: 5 mg/mL",Ja
same,Löslichkeit,"Aceton, Konzentration: 10 mg/mL",Ja
same,Löslichkeit,"Aceton, Konzentration: 2,5 mg/mL",Ja
same,Löslichkeit,"Acetonitril, Konzentration: 5 mg/mL",Ja (Wärme)
same,Löslichkeit,"Acetonitril, Konzentration: 10 mg/mL",Ja (Wärme)
same,Löslichkeit,"Acetonitril, Konzentration: 2,5 mg/mL",Ja
same,Löslichkeit,"Cyclooctan, Konzentration: 5 mg/mL",Ja (Wärme)
same,Löslichkeit,"Cyclooctan, Konzentration: 10 mg/mL",Nein
same,Löslichkeit,"Cyclooctan, Konzentration: 2,5 mg/mL",Ja
same,Löslichkeit,"Essigester, Konzentration: 5 mg/mL",Ja
same,Löslichkeit,"Essigester, Konzentration: 10 mg/mL",Ja
same,Löslichkeit,"Essigester, Konzentration: 2,5 mg/mL",Ja
same,Löslichkeit,"In der Wärme (60 °C), solvent not stated",~40 mg/mL
same,Löslichkeit (max.),Mesitylen,≤ 20 mg/mL
same,Löslichkeit,"Mesitylen, Konzentration: 5 mg/mL",Ja
same,Löslichkeit,"Mesitylen, Konzentration: 10 mg/mL",Ja
same,Löslichkeit,"Mesitylen, Konzentration: 2,5 mg/mL",Ja
same,Löslichkeit (max.),O-Xylol,≤ 20 mg/mL
same,Löslichkeit,"O-Xylol, Konzentration: 5 mg/mL",Ja
same,Löslichkeit,"O-Xylol, Konzentration: 10 mg/mL",Ja
same,Löslichkeit,"O-Xylol, Konzentration: 2,5 mg/mL",Ja
same,Löslichkeit (max.),Tetralin,≤ 20 mg/mL
same,Löslichkeit,"Tetralin, Konzentration: 5 mg/mL",Ja
same,Löslichkeit,"Tetralin, Konzentration: 10 mg/mL",Ja
same,Löslichkeit,"Tetralin, Konzentration: 2,5 mg/mL",Ja
same,Löslichkeit (qualitative),,erhöhte Löslichkeit

# Source: EP3221422B1, “COPPER(I) COMPLEXES FOR OPTOELECTRONIC APPLICATIONS” (cynora GmbH, priority 2014, dated 2016)
